Data from patent US9834534B2, “Neuraminidase inhibitor compounds, compositions and methods for the use thereof in anti-viral treatments” (THE UNIVERSITY OF BRITISH COLUMBIA, priority 2009, dated 2017).
pIC50, pKd, pKi: −log10 of the molar value. “And” between values parts separate entries of the source, which are not always exact repeats. Identical values can stand only once. Like-named read-outs stand apart in the source and are kept apart here.

Columns and labels:
Fukui H3N2 wt = test: microbe, parasite or virus in culture; type: cell-based; details: Influenza A virus, H3N2, read-out: IC50 Fukui H3N2 wt
sH1N1/01 wt = test: microbe, parasite or virus in culture; type: cell-based; details: Influenza A virus, read-out: IC50 sH1N1/01 wt
[1] = test system: B/Florida wt (B/Florida/4/2006); test: microbe, parasite or virus in culture; type: cell-based; details: Influenza B virus, read-out: IC50 B/Florida wt
[2] = test system: Sol Isl sH1N1 wt (A/Solomon Islands/3/2006); test: microbe, parasite or virus in culture; type: cell-based, influenza A virus; details: read-out: IC50 Sol Isl sH1N1 wt
sH1N1/08 wt = test: microbe, parasite or virus in culture; type: cell-based; details: Influenza A virus, read-out: IC50 sH1N1/08 wt
[3] = test system: Auckland pH1N1 wt (A/Auckland/3/2009); test: microbe, parasite or virus in culture; type: cell-based; details: Influenza A virus, read-out: IC50 Auckland pH1N1 wt
B/Perth wt = test: microbe, parasite or virus in culture; type: cell-based; details: Influenza B virus, read-out: sensitivity to inhibitors, B/Perth wt
H1N1 OsR = H1N1 OsR (Influenza A virus (H1N1), UniProt Q289M4); details: for ki: pH 7.6
Sequence of H1N1 OsR (Q289M4 whole entry, looked up): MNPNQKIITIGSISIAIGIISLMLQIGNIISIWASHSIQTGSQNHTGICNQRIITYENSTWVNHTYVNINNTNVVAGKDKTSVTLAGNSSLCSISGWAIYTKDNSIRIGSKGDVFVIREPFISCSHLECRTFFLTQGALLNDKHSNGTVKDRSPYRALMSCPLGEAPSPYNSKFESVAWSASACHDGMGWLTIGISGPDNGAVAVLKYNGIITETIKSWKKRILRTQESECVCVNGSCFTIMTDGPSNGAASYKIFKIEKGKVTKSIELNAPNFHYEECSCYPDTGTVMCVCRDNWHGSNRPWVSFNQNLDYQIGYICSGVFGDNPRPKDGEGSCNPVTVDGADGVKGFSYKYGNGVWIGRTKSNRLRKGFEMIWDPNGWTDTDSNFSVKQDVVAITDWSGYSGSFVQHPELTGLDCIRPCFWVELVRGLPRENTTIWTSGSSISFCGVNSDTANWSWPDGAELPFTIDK

[4] = molecular target: influenza sialidase (subtype N9) (Influenza A virus, UniProt P03472); test: biochemical; type: biochemical
Sequence of influenza sialidase (subtype N9) (P03472 whole entry, looked up): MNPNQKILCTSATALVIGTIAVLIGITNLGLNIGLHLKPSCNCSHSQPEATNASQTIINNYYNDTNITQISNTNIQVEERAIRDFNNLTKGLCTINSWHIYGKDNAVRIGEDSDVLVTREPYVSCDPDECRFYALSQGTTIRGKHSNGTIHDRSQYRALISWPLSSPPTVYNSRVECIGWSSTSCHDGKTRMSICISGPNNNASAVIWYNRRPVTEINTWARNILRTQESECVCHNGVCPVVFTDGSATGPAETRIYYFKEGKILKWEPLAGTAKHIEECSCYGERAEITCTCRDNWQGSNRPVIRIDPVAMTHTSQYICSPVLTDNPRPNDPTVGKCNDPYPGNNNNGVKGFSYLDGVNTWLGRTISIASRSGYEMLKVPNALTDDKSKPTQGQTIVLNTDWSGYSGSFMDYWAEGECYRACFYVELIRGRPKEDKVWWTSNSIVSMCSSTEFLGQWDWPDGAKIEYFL

MDCK cells = details: dog
[5] = Balb/C, mouse, in vivo, 1 mg/kg
[6] = 1 mg/kg
[7] = test system: influenza A/Brisbane/10/2007 (H3N2); test: microbe, parasite or virus in culture; type: cell-based, influenza A virus; details: for minimal effective concentration: Influenza A virus, H3N2, MDCK, read-out: Cytoprotective effect
[8] = test system: influenza A virus, A/HK/1/68 (H3N2); parameters: species or system Balb/C mice (Mus musculus); details: mouse, in vivo
in vivo = details: Balb/C, mouse, 1 mg/kg; for half-life: T1/2
[9] = test system: influenza B/HongKong/5/72; test: microbe, parasite or virus in culture; type: cell-based, influenza B virus; details: for minimal effective concentration: Influenza B virus, MDCK, read-out: Cytoprotective effect
[10] = test system: influenza A/Denver/1/57 (H1N1); test: microbe, parasite or virus in culture; type: cell-based, influenza A virus; details: for minimal effective concentration: Influenza A virus, H1N1, MDCK, read-out: Cytoprotective effect
[11] = test system: influenza B/Florida/04/06; type: cell-based; details: for Relative activity: relative to Zanamivir

Compound | pIC50 (Fukui H3N2 wt) | pIC50 (sH1N1/01 wt) | pKd ([4]; 30° C., pH 7.6) | ki/Kd ([4]; pH 7.6) | Toxicity (MDCK cells) | half time for the full inactivation of the sialidase [4] | Relative toxicity (MDCK cells) | Relative activity [7] | minimal effective concentration [7] | Relative activity [9] | minimal effective concentration [9] | Relative activity [10] | minimal effective concentration [10] | also measured
CCOC(=O)C1=C[C@@H](OC(CC)CC)[C@H](NC(C)=O)[C@@H](N)C1 [Oseltamivir] | 5.77 | 8.51 | – | – | – | – | – | – | – | – | – | – | – | pIC50 [1]: 7.65; pIC50 ([2]; Influenza A virus): 9.00; pIC50 (sH1N1/08 wt): 8.52; pIC50 [3]: 9.70
CC(=O)NC1C(NC(=N)N)C(F)C(F)(C(=O)O)OC1[C@H](O)[C@H](O)CO (stereo partly drawn) [4-G3Feq diF SA, 5-Acetamido-2,4,5-trideoxy-2α, 3β-difluoro-4-guanidino-α-D-erythro-L-gluco-nonulopyranosonate] | 4.60 | 7.90 | – | – | – | – | – | – | – | – | – | – | – | pIC50 (B/Perth wt): 8.35; Half life for reactivation (H1N1 OsR): 9 h; ki (H1N1 OsR): 1.5 ± 0.16 min⁻¹; pIC50 [1]: 8.70; pIC50 (sH1N1/08 wt): 8.17; pIC50 [3]: 8.40
CC(=O)N[C@@H]1C(NCc2ccccc2)C(F)[C@](F)(C(=O)O)OC1[C@H](O)[C@H](O)CO (some centres unmarked) [C4 Bn] | – | – | 3.51 | 0.61 min⁻¹ mM⁻¹ | – | – | – | – | – | – | – | – | – | pKi ([4]; 30° C., pH 7.6): 5.39; khyd ([4]; 30° C., pH 7.6): 0.0025 min⁻¹
CC(=O)N[C@@H]1C(NC(=N)N)C(F)[C@](F)(C(=O)O)OC1[C@H](O)[C@H](O)CO (stereo partly drawn) [Compound 12, (2R,3R)-4-Guanyl-2,4-dideoxy-2,3-difluorosialic acid] | 2.70 | 6.94 | 5.05 | – | 0.9 µg/mL | ca. 10 min | – | – | – | – | – | – | – | pIC50 (B/Perth wt): 7.27; Cinitial [5]: 4954 ng/mL; Cinitial ([5]; iv): 9480 ng/mL; % weight loss mean +/− SD ([6]; mouse, in vivo): 4.72 +/− 2.78%; number of animals remaining ([6]; n = 5): 5; half time for the full reactivation of the inactivated sialidase [4]: 6.7 h; pKi ([4]; 30° C., pH 7.6): 7.15; khyd ([4]; 30° C., pH 7.6): 0.0017 min⁻¹; Half life for reactivation (H1N1 OsR): 116 h; ki (H1N1 OsR): 0.075 ± 0.002 min⁻¹; Cytoprotective effect [7]: 74 ng/mL; pIC50 [1]: 8.18; survival compared to the untreated control group [8]: significantly extended; % weight loss mean +/− SD ([8]; 1 mg/kg): 10.75 +/− 4.87%; half-life (in vivo; inhaled or intranasal): 17.3 min; half-life (in vivo; iv): 8.3 min
CC(=O)NC1C(F)[C@](F)(C(=O)O)OC([C@H](O)[C@H](O)CO)[C@@H]1NC(C)=O (stereo partly drawn) [Compound 11, (2R,3R)-4-(N-Acetyl) amino-2,4-dideoxy-2,3-difluorosialic acid] | – | – | 3.40 | 0.53 min⁻¹ mM⁻¹ | 102.3 µg/mL | ca. 10 min | 5.6 | 0.2 | 1.6 µg/mL | – | – | – | – | –
CC(=O)N[C@@H]1C(O)C(F)[C@](F)(C(=O)O)OC1[C@H](O)[C@H](O)CO (some centres unmarked) [Compound 23DFSA, 2,3-Difluorosialic acid, reference compound] | – | – | – | – | – | – | – | – | – | 0.07 | 34.1 µg/mL | 0.001 | 4.26 µg/mL | ki/Kd ([4]; 4° C.): 196 and 196^b min^−1mM^−1
CC(=O)N[C@H]1[C@H]([C@H](O)[C@H](O)CO)OC(C(=O)O)=C[C@@H]1N=C(N)N [Zanamivir, reference compound] | 5.42 | 8.72 | – | – | 568 µg/mL | – | 1.0 | 1.0 | – | 1.0 | – | 1.0 | – | Cytoprotective effect [11]: 2219 ng/mL; Relative activity ([11]; Replicate 1): 1.0; Cytoprotective effect ([11]; Replicate 2): 887 ng/mL; Relative activity ([11]; Replicate 2): 1.0; AUC(Lung) (Zanamivir/DFSA-4Gu) ([5]; inhaled or intranasal): 1.07; Cytoprotective effect [7]: 369.9 ng/mL; pIC50 [2]: 8.66; survival compared to the untreated control group [8]: significantly extended; % weight loss mean +/− SD ([8]; 0.1 mg/kg): 16.73 +/− 2.62%; % weight loss mean +/− SD ([8]; 1 mg/kg): 12.24 +/− 2.34%; pIC50 (sH1N1/08 wt): 9.00; AUC (in vivo; inhaled or intranasal): 4230 ng·h/mL; half-life (in vivo; inhaled or intranasal): 19.1 min; pIC50 [3]: 9.22
CCNC1C(F)[C@](F)(C(=O)O)OC([C@H](O)[C@H](O)CO)[C@@H]1NC(C)=O (stereo partly drawn) [Compound 7, (2R,3R)-4-(N-Ethyl) amino-2,4-dideoxy-2,3-difluorosialic acid] | – | – | 4.85 | 4.1 min⁻¹ mM⁻¹ | 7.8 µg/mL | ca. 10 min | 72.7 | – | 0.122 µg/mL | 0.57 | 3.91 µg/mL | 0.001 | 3.91 µg/mL | Cytoprotective effect ([11]; Replicate 1): 3267 ng/mL; Relative activity ([11]; Replicate 1): 0.67; Cytoprotective effect ([11]; Replicate 2): 3267 ng/mL; Relative activity ([11]; Replicate 2): 0.27; Cytoprotective effect [7]: 61.0 ng/mL
CCOC(=O)[C@]1(F)OC([C@H](O)[C@H](O)CO)[C@H](NC(C)=O)C(N)C1F (stereo partly drawn) [Compound 5, Ethyl (2R,3R)-4-Amino-2,4-dideoxy-2,3-difluorosialylate] | – | – | – | – | 125.0 µg/mL | – | 4.5 | 36.4 and 48.6 | 0.0076 µg/mL | 2.27 | 0.977 µg/mL | 0.009 | 0.488 µg/mL | Cytoprotective effect ([11]; Replicate 1): 290 ng/mL; Relative activity ([11]; Replicate 1): 7.7; Cytoprotective effect ([11]; Replicate 2): 290 ng/mL; Relative activity ([11]; Replicate 2): 3.1
CC(=O)N[C@@H]1C(N)C(F)[C@](F)(C(N)=O)OC1[C@H](O)[C@H](O)CO (stereo partly drawn) [Compound 9, (2R,3R)-4-Amino-2,4-dideoxy-2,3-difluorosialylamide] | – | – | 2.99 | 0.34 min⁻¹ mM⁻¹ | 7.5 µg/mL | ca. 10 min | 75.5 | 2.4 | 0.118 µg/mL | 0.15 | 15.1 µg/mL | 0.001 | 3.76 µg/mL | –
CC(=O)N[C@@H]1C(N=[N+]=[N-])C(F)[C@](F)(C(=O)O)OC1[C@H](O)[C@H](O)CO (stereo partly drawn) [Compound 8, (2R,3R)-4-Azido-2,4-dideoxy-2,3-difluorosialic acid] | – | – | – | – | 53.4 µg/mL | – | 10.6 | 2.7 | 0.104 µg/mL | – | – | – | – | pKd ([4]; 4° C.): 3.62; fold lower kinetic value (ki/Kd) than 23DFSA ([4]; 4° C.): 26 fold; ki/Kd ([4]; 4° C.): 7.5 and 7.5^b min^−1mM^−1
CCOC(=O)[C@]1(F)OC([C@H](O)[C@H](O)CO)[C@H](NC(C)=O)C(NC(=N)N)C1F (stereo partly drawn) [Compound 13, Ethyl (2R,3R)-4-Guanyl-2,4-dideoxy-2,3-difluorosialylate] | – | – | – | – | 1.4 µg/mL | – | 400.0 | 6.3 and 8.3 | 0.0444 µg/mL | 3.13 | 0.71 µg/mL | 0.006 | 0.71 µg/mL | –
